13 molecules from patent publication US10435388B2, “Selective inhibitors of clinically important mutants of the EGFR tyrosine kinase” (CS PHARMATECH LIMITED, priority 2016, dated 2019) can be followed below.

In assay [1] the test system is p-EGFR in A431 cells (wild type EGFR, EGF stimulated). Description: Wild type EGFR A431 autophosphorylation inhibition assay (ELISA). The note with it: 2 h treatment, EGF stimulation 10 min. Type of assay: cell-based, human. As to the method:
(§1) Cellular EGFR Autophosphorylation Assays.
Wild Type EGFR A431 Autophosphorylation Inhibition Assay (ELISA).
After 2 hour treatment with test compounds, add 4.5 μL of EGF (1 μg/mL) into each well and stimulate for 10 min. The rest of the procedure was processed in the same manner as described above for H1975 cells.

For assay [2], the system named is A431 cells (WT). Description: A431 inhibition assay (cell proliferation), Method B. The note with it: cellular proliferation, several runs. The assay is classed as cell-based, human. As to the method:
Cell Proliferation Assays—Method B
A431 Inhibition Assay, (Cell Proliferation).
The rest procedure was conducted in the same manner as described above for H1975 cells.

Assay [3] concerns H1975 cells (DM). The assay is described as follows: H1975 inhibition assay (cell proliferation), Method B. Type of assay: cell-based. Conditions: cellular proliferation, several runs.
The subject of assay [4] is PC9 cells (SM). Description: PC-9 growth inhibition assay (cell proliferation), Method B. Type of assay: cell-based, human. The note with it: cellular proliferation, several runs.
Assay [5] has as its system p-EGFR in H1975 cells (L858R/T790M double mutant EGFR). Conditions: for IC50: Homo sapiens, NCI-H1975, 2 h, read-out: H1975 IC50 (nM), cellular EGFR autophosphorylation, 2 h treatment, ELISA; for pIC50: read-out: H1975 IC50, cellular EGFR autophosphorylation, 2 h treatment, ELISA.
Description: H1975 cells were cryopreserved in liquid nitrogen. […] Remove the vial from liquid nitrogen and thaw rapidly by placing at 37° C. in a water bath with gentle agitation for 1-2 minutes and then decontaminated by wiping with 70% ethanol before opening in a Class II biological safety cabinet. Transfer the vial contents drop-wise into 10 mL of cell culture medium in a sterile 15 mL conical tube. Then centrifuged the tube at 200× g for 5 minutes and aspirate the supernatant. Re-suspend the cell pellet with 1 mL of fresh cell culture medium and transfer it in to the T75 flask containing cell culture medium.
To passage H1975 cells, firstly, the adherent cells were rinsed with Trypsin/EDTA. Then add Trypsin/EDTA (3 mL for a T75 flask) into the flask and swirl to ensure the cells coated with trypsin evenly. Then incubate the flasks at 37° C. until the cells detach. Add equal volume of cell culture medium to stop the reaction. Collect the detached cells and centrifuged at 200× g for 5 minutes followed by re-suspended in fresh culture medium. Then, the cells were transferred into a new T75 flask containing cell culture medium. Cells were sub-cultured three times per week at a ratio of 1:4 in culture medium.
Harvest cells from flask into cell culture medium and the cell numbers counted using Automated Cell Counter (Thermo Fisher Scientific, Countess™). Dilute the cells into 250,000 cells/mL with culture medium and add 40 μL of cell suspension into each well of 384-well cell culture plate as designated. The final concentration was 10,000 cells/well. The plates were covered with lid and placed in 37° C. 5% CO2 incubator overnight for cell attachment.
On the second day, test compounds were dissolved in DMSO at 10 mM. […] The same volume of DMSO was adopted as high control.
Place the plate back to 37° C. 5% CO2 incubator for 2 hours. Replace the medium of each well with ice-cold HBSS. Then remove the HBSS, add 30 μL cell lysis buffer into each well and shake the plates for 30 mins on a plate shaker. Centrifuge for 5 min at 1,000 rpm to remove bubbles and transfer 25 uL of the lysate supernatant for p-EGFR assay by using a commercial ELISA kit (R&D, DYC1095B-5).
For estimation of IC50, the absorption readout are transformed to % relative activity by applying the following equation
[formula] The IC50 was then calculated by fitting in XLFit (IDBS, Guildford, Surrey) to a four parameters logistic curve.
For assay [6], the system named is p-EGFR in PC9 cells (Exon 19 deletion EGFR). The assay is described as follows: Exon19 deletion EGFR (activating single mutant) PC-9 cellular autophosphorylation assay. Type of assay: cell-based, human. Conditions: 2 h treatment, ELISA. As to the method: as §1
The human lung cell line PC9 (Exon 19 deletion EGFR) is obtained from the American type Culture Collection. […] Cells are grown in a humidified incubator at 37° C. with 5% CO2, Assays to measure cellular phosphorylation of endogenous p-EGFR in cell Iysates are carried out according to the protocol described in the R&D Systems DuoSet IC Human Phospho-EGF R ELISA (R&D Systems catalogue number #DYCI095). 40 μL of cells are seeded (10000 cells/well) in growth medium in Corning black, clear-bottomed 384-well plates and incubated at 37° C., with 5%0/CO2 overnight. […] Plates are incubated for a further 2 h, then following aspiration of medium, 40 μL×lysis buffer is added to each well. Greiner black high bind 384 well plates are coated with capture antibody and then blocked with 3% BSA. Following removal of block, 15 μL of lysate are transferred to the Greiner black high bind 384 well plates and incubated for 2 hours. Following aspiration and washing of the plates with PBS, 20 μL of detection antibody are added and incubated for 2 hours. […] The data obtained with each compound are exported into a suitable software package (such as Origin) to perform curve fitting analysis.
A general note: ELISA stands for enzyme-linked immunosorbent assay.

Assay [7] concerns the target T1, IGF-1R (Homo sapiens, UniProt P08069).
T1 construct: purchased CARNA BIOSCIENCE 08-141
Description: IGF-1R inhibition assay (Caliper EZ Reader). Type of assay: biochemical. Conditions: enzyme assay. The protocol: (§2) Test compound was dissolved in DMSO at 30 mM. […] 20 nL of these compounds DMSO dilutes were dispensed into a new 384-well assay plate by Echo 550. […] 15 uL of kinase assay buffer containing IGF-1R protein and substrate was transferred to assay plate and incubate at RT for 30 minutes. Kinase assay buffer supplemented with substrate peptides was employed as low control to monitor the background. 40 μM ATP was prepared in kinase assay buffer containing and 5 μL of ATP solution was added to each well to start the reaction. The assay plate was incubated at 25° C. for 180 minutes and the reaction was stopped by adding 40 μL of 0.5 M EDTA.
Phosphorylated fluorescent-tagged peptides were differentiated from non-phosphorylated peptides by separating using Caliper EZ Reader II and the detection was directly converted to conversion ratio.

Assay [8] has as its target T2, INSR (Homo sapiens, UniProt P06213).
T2 construct: purchased CARNA BIOSCIENCE 08-142
Description: INSR inhibition assay (Caliper EZ Reader). The assay is classed as biochemical. The note with it: enzyme assay. The protocol:
as §2, with “INSR” for “IGF-1R”, “LM” for “μM”
The result is analyzed in the same manner of […].

[9] abbreviates: Homo sapiens, A-431, cellular EGFR autophosphorylation.
Setting [10] is: cellular EGFR autophosphorylation.

Structures are written as SMILES. pIC50: −log10 of the molar value. Where two headings read alike, the source gives them in different places.

T1 sequence (P08069 959-1367 limits assumed): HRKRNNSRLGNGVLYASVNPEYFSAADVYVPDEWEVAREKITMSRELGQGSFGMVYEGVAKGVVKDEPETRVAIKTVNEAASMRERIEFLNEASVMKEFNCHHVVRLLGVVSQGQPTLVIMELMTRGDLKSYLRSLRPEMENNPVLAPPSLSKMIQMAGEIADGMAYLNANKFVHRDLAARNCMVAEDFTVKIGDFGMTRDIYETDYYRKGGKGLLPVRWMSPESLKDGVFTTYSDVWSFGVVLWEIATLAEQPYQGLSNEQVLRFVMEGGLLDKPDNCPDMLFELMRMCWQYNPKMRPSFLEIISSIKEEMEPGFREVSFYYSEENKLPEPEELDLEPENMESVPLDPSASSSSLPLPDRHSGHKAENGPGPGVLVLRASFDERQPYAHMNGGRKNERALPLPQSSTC
T2 sequence (P06213 989-1382 limits assumed): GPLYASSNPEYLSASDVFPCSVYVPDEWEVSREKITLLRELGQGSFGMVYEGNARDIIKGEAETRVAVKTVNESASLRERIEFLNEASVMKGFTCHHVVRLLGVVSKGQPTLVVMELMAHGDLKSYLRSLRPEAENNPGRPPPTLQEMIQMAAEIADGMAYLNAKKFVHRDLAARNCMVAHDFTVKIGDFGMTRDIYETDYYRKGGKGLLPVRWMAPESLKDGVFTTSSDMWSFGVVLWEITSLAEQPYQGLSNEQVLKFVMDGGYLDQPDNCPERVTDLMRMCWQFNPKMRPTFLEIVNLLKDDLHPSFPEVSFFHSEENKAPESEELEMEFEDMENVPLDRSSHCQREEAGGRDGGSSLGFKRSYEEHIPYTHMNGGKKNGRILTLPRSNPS

What is called pIC50 is −log10 of the IC50, conventionally taken in molar units. The term IC50 denotes the point on the concentration scale where inhibition reaches its midpoint. As to `C=CC(=O)N1CC[C@@H](Oc2nc(Nc3ccc(N4CCC(N5CCN(C)CC5)CC4)cc3)c(C(N)=O)nc2CC)C1` [ASP8273], the negative-log IC50 (pIC50) in assay [1] (setting [9]) is 6.66; in assay [2] (Homo sapiens, A-431, 72 h) it was 6.17; in assay [3] (Homo sapiens, NCI-H1975, 72 h), 7.92; in assay [4] (Homo sapiens, PC-9, 72 h), 7.80; in assay [6] (Homo sapiens, PC-9, 2 h) it was 7.43. The IC50 in assay [5] stood at 7.8 nM.
`Cc1cc(C(=O)Nc2nc3cccc(Cl)c3n2[C@@H]2CCCCN(C(=O)/C=C/CN(C)C)C2)ccn1` [EGF 816]: the pIC50 in assay [1] (setting [10]) is 6.56; in assay [2] (72 h), 5.54; in assay [3] (72 h), 7.11; in assay [4] (72 h), 7.17; in assay [5], 7.36; in assay [6], 7.60.
For `C=CC(=O)Nc1cc(Nc2nccc(-c3c[nH]c4c(OC)nccc34)n2)c(OC)cc1N(C)CCN(C)C` [Example 23, N-(2-((2-(Dimethylamino)ethyl)(methyl)amino)-4-methoxy-5-((4-(7-methoxy-1H-pyrrolo[2,3-c]pyridin-3-yl)pyrimidin-2-yl)amino)phenyl) acrylamide], the pIC50 in assay [1] (setting [9]) is 7.58; in assay [3] (Homo sapiens, NCI-H1975, 72 h), 8.61; in assay [3] (72 h) it was 8.58; in assay [4] (Homo sapiens, PC-9, 72 h), 8.42; in assay [4] (72 h), 8.47; in assay [6] (Homo sapiens, PC-9, 2 h), 8.86. For the same molecule, the results for the concentration for half-maximal inhibition (IC50) in assay [7], in assay [8] and in assay [5] were 271 nM, 325 nM and 1.15 nM, respectively.
As to `C=CC(=O)Nc1cc(Nc2nccc(-c3cnc(NC)c(C(C)=O)c3)n2)c(OC)cc1N(C)CCN(C)C` [Example 27, N-(5-((4-(5-Acetyl-6-(methylamino)pyridin-3-yl)pyrimidin-2-yl)amino)-2-((2-(dimethylamino)ethyl)(methyl)amino)-4-methoxyphenyl) acrylamide], the pIC50 in assay [1] (setting [9]) is 6.70; in assay [2] (Homo sapiens, A-431, 72 h), 5.79; in assay [3] (Homo sapiens, NCI-H1975, 72 h), 8.00; in assay [4] (Homo sapiens, PC-9, 72 h), 7.87; in assay [6] (Homo sapiens, PC-9, 2 h) it was 7.75. For the same molecule, the IC50 was 4820 nM in assay [7], 13200 nM in assay [8] and 6.78 nM in assay [5].
For `C=CC(=O)Nc1cc(Nc2nccc(-n3cc(C(C)=O)c4ccccc43)n2)c(OC)cc1N(C)CCN(C)C` [Example 31, N-(5-((4-(3-Acetyl-1H-indol-1-yl)pyrimidin-2-yl)amino)-2-((2-(dimethylamino)ethyl)(methyl)amino)-4-methoxyphenyl) acrylamide], the pIC50 in assay [1] (setting [9]) was 6.79; in assay [2] (Homo sapiens, A-431, 72 h), 5.97; in assay [2] (72 h), 6.03; in assay [3] (Homo sapiens, NCI-H1975, 72 h), 7.86; in assay [3] (72 h), 7.94; in assay [4] (Homo sapiens, PC-9, 72 h), 8.07. Further, the negative-log IC50 (pIC50) was 8.08 in assay [4] (72 h) and 7.86 in assay [6] (Homo sapiens, PC-9, 2 h). The IC50 is 765 nM in assay [7], 814 nM in assay [8] and 7.64 nM in assay [5].
In the case of `C=CC(=O)Nc1cc(Nc2nccc(-n3nc(NCC)c4ccccc43)n2)c(OC)cc1N(C)CCN(C)C` [Example 41], the negative-log IC50 (pIC50) in assay [1] (setting [9]) is 6.86; in assay [2] (Homo sapiens, A-431, 72 h), 6.53; in assay [3] (Homo sapiens, NCI-H1975, 72 h) it was 8.03; in assay [4] (Homo sapiens, PC-9, 72 h), 8.12; in assay [6] (Homo sapiens, PC-9, 2 h), 8.20. For the same molecule, the values for the half-inhibitory concentration (IC50) in assay [7], in assay [8] and in assay [5] were 1420 nM, 1270 nM and 11.9 nM, respectively.
Consider `C=CC(=O)Nc1cc(Nc2nccc(-n3nc(NC(C)C)c4ccccc43)n2)c(OC)cc1N(C)CCN(C)C` [Example 43], for which the pIC50 in assay [1] (setting [9]) was 7.13; in assay [2] (Homo sapiens, A-431, 72 h), 6.66; in assay [3] (Homo sapiens, NCI-H1975, 72 h) it was 8.40; in assay [4] (Homo sapiens, PC-9, 72 h), 8.48; in assay [6] (Homo sapiens, PC-9, 2 h), 7.99. Also, the IC50 in assay [5] turned out to be 10.2 nM.
On to `C=CC(=O)Nc1cc(Nc2nccc(-n3nc(C(C)(C)O)c4ccccc43)n2)c(OC)cc1N(C)CCN(C)C` [Example 45], for which the pIC50 in assay [1] (setting [9]) is 7.12; in assay [2] (Homo sapiens, A-431, 72 h) it was 6.34; in assay [3] (Homo sapiens, NCI-H1975, 72 h), 8.58; in assay [4] (Homo sapiens, PC-9, 72 h) it was 8.36; in assay [6] (Homo sapiens, PC-9, 2 h) it was 7.97. The IC50 in assay [7] amounted to 1270 nM; in assay [8] it was 1020 nM; in assay [5], 3.83 nM.
For `C=CC(=O)Nc1cc(Nc2nccc(-n3nc(N(C)C)c4ncccc43)n2)c(OC)cc1N(C)CCN(C)C` [Example 55, N-(5-(4-(3-(Dimethylamino)-1H-pyrazolo[4,3-b]pyridin-1-yl)pyrimidin-2-ylamino)-2-(N-(2-(dimethylamino)ethyl)-N-methylamino)-4-methoxyphenyl) acrylamide], the pIC50 in assay [1] (setting [9]) is 6.97; in assay [2] (Homo sapiens, A-431, 72 h), 5.55; in assay [3] (Homo sapiens, NCI-H1975, 72 h) it was 8.41; in assay [4] (Homo sapiens, PC-9, 72 h), 8.04; in assay [6] (Homo sapiens, PC-9, 2 h), 7.81. Besides, the half-maximal inhibitory concentration (IC50) in assay [7] was determined as 1300 nM; in assay [8] it was 1200 nM; in assay [5], 4.07 nM.
`C=CC(=O)Nc1cc(Nc2nccc(-n3nc(NC)c4ncccc43)n2)c(OC)cc1N(C)CCN(C)C` [Example 56, N-(5-(4-(3-(Methylamino)-1H-pyrazolo[4,3-b]pyridin-1-yl)pyrimidin-2-ylamino)-2-(N-(2-(dimethylamino)ethyl)-N-methylamino)-4-methoxyphenyl) acrylamide]: the pIC50 in assay [1] (setting [9]) is 7.10; in assay [2] (Homo sapiens, A-431, 72 h), 6.29; in assay [3] (Homo sapiens, NCI-H1975, 72 h) it was 8.56; in assay [4] (Homo sapiens, PC-9, 72 h), 8.78; in assay [6] (Homo sapiens, PC-9, 2 h), 8.39. The concentration for half-maximal inhibition (IC50) was 637 nM in assay [7], 433 nM in assay [8] and 6.28 nM in assay [5].
In the case of `C=CC(=O)Nc1cc(Nc2nccc(-c3cnc(OC)c4c3ccn4C)n2)c(OC)cc1N(C)CCN(C)C` [Example 57, N-(5-(4-(7-Methoxy-1N-methyl-1H-pyrrolo[2,3-c]pyridin-4-yl)pyrimidin-2-ylamino)-2-(N-(2-(dimethylamino)ethyl)-N-methylamino)-4-methoxyphenyl) acrylamide], the negative-log IC50 (pIC50) is 6.87 in assay [1] (setting [9]); 6.57 in assay [2] (Homo sapiens, A-431, 72 h); 8.29 in assay [3] (Homo sapiens, NCI-H1975, 72 h); 8.44 in assay [4] (Homo sapiens, PC-9, 72 h); 7.85 in assay [6] (Homo sapiens, PC-9, 2 h). The results for the IC50 in assay [7], in assay [8] and in assay [5] were 207 nM, 290 nM and 8.5 nM, respectively.
Regarding `C=CC(=O)Nc1cc(Nc2nccc(-c3cc(C#N)c4[nH]cc(C)c4c3)n2)c(OC)cc1N(C)CCN(C)C` [Example 67, N-(5-(4-(7-Cyano-3-methyl-1H-indol-5-yl)pyrimidin-2-ylamino)-2-((2-(dimethylamino)ethyl)(methyl)amino)-4-methoxyphenyl) acrylamide], the negative-log IC50 (pIC50) was 6.96 in assay [1] (setting [9]); 6.30 in assay [2] (Homo sapiens, A-431, 72 h); 8.98 in assay [3] (Homo sapiens, NCI-H1975, 72 h); 8.68 in assay [4] (Homo sapiens, PC-9, 72 h); 8.32 in assay [6] (Homo sapiens, PC-9, 2 h). Also, the half-maximal inhibitory concentration (IC50) worked out at 243 nM in assay [7], 403 nM in assay [8] and 1.06 nM in assay [5].
For `C=CC(=O)N[C@@H]1CN(c2nc(Nc3cn(C)nc3OC)c3ncn(C)c3n2)C[C@H]1F` [PF-06747775], the pIC50 is 7.11 in assay [1] (setting [10]); 6.18 in assay [2] (72 h); 7.56 in assay [3] (72 h); 8.15 in assay [4] (72 h); 8.10 in assay [5]; 8.13 in assay [6].
